Tests used:
human M5 receptor = human M5 receptor (Homo sapiens (Human), UniProt P08912); experiment: Radioligand (tritiated N-methylscopolamine) binding assay, M5; conditions: CHO cell membranes expressing human M5; 1.5 nM tritiated N-methylscopolamine; 90 min, 37° C.; read-out: Ki against M5 receptor (Table 21, M5)
Method in brief: (§1)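 Membranes came from recombinant CHO cells expressing human muscarinic subtypes and were incubated with compound and [3H]NMS (1.5 nM) in HEPES/NaCl/MgCl2/EDTA buffer, pH 7.4, at 37° C for 90 min. Twelve-point dose-response (printed 10–[…]). Filter-bound radioactivity was counted and Ki values derived.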

human M4 receptor = human M4 receptor (Homo sapiens (Human), UniProt P08173); experiment: Radioligand (tritiated N-methylscopolamine) binding assay, M4; conditions: Ki against the M4 receptor; membranes from CHO cells expressing human M4; tritiated N-methylscopolamine 1.5 nM; read-out: Ki
Sequence of human M4 receptor (P08173 whole entry): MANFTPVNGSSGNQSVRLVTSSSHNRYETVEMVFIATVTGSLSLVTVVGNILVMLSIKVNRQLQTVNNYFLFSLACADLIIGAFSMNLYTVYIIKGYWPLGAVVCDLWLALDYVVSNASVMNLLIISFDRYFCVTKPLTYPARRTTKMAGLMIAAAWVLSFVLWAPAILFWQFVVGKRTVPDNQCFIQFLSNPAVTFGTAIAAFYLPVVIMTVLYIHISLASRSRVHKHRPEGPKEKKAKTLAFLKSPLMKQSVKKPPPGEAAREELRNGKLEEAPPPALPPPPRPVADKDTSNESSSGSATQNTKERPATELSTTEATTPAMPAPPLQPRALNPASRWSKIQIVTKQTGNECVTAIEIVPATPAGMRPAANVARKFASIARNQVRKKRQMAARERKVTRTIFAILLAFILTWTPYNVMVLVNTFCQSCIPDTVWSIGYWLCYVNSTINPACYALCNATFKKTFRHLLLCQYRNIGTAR
Method in brief: as §1

human M1 receptor = human M1 receptor (Homo sapiens (Human), UniProt P11229); experiment: Radioligand (tritiated N-methylscopolamine) binding assay, M1; conditions: CHO cell membranes expressing human M1; 1.5 nM tritiated N-methylscopolamine; 90 min, 37° C.; read-out: Ki against M1 receptor (Table 21, M1)
Sequence of human M1 receptor (P11229 whole entry): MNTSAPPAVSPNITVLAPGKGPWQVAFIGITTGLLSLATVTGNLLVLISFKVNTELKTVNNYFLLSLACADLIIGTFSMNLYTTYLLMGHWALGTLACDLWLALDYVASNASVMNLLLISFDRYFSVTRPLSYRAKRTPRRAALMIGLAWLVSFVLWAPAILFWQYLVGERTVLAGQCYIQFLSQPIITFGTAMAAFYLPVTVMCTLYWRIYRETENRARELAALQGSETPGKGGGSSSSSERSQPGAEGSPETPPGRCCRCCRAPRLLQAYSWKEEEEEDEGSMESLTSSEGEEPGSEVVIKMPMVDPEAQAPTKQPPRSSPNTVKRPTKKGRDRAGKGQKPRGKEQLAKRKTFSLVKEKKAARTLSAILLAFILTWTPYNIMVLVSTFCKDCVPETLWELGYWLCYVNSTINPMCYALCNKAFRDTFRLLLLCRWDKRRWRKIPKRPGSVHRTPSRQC
Method in brief: as §1

human M3 receptor = human M3 receptor (Homo sapiens (Human), UniProt P20309); experiment: Radioligand (tritiated N-methylscopolamine) binding assay, M3; conditions: CHO cell membranes expressing human M3; 1.5 nM tritiated N-methylscopolamine; 90 min, 37° C.; read-out: Ki against M3 receptor (Table 21, M3)
Sequence of human M3 receptor (P20309 whole entry): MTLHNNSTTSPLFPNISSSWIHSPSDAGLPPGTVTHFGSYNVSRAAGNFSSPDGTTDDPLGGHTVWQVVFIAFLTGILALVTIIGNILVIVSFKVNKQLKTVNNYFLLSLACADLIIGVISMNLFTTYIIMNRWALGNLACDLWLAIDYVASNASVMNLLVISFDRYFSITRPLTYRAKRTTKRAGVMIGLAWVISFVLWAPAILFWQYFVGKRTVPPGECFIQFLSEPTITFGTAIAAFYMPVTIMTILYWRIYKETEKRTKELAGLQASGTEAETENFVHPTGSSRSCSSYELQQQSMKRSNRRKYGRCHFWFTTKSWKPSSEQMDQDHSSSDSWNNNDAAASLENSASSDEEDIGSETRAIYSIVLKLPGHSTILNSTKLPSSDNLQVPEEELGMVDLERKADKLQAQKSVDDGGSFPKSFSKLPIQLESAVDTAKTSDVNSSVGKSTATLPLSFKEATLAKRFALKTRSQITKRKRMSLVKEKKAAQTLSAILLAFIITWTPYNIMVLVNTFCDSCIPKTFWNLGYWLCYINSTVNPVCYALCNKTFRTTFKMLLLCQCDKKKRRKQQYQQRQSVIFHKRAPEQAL
Method in brief: as §1

human M2 receptor = human M2 receptor (Homo sapiens (Human), UniProt P08172); experiment: Radioligand (tritiated N-methylscopolamine) binding assay, M2; conditions: CHO cell membranes expressing human M2; 1.5 nM tritiated N-methylscopolamine; 90 min, 37° C.; read-out: Ki against M2 receptor (Table 21, M2)
Sequence of human M2 receptor (P08172 whole entry): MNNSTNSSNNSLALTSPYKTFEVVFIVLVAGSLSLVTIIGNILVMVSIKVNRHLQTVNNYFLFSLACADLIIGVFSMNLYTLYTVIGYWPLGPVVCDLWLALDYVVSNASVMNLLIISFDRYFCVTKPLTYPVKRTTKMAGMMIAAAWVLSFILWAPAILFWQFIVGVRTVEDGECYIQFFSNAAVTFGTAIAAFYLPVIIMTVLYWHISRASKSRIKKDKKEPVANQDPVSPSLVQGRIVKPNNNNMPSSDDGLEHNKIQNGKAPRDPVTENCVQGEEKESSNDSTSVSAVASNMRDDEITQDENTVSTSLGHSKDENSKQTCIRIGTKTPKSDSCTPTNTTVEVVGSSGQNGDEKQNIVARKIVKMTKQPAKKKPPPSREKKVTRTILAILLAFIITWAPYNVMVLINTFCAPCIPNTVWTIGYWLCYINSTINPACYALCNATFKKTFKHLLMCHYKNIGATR
Method in brief: as §1

Sequence of human M5 receptor (P08912 whole entry): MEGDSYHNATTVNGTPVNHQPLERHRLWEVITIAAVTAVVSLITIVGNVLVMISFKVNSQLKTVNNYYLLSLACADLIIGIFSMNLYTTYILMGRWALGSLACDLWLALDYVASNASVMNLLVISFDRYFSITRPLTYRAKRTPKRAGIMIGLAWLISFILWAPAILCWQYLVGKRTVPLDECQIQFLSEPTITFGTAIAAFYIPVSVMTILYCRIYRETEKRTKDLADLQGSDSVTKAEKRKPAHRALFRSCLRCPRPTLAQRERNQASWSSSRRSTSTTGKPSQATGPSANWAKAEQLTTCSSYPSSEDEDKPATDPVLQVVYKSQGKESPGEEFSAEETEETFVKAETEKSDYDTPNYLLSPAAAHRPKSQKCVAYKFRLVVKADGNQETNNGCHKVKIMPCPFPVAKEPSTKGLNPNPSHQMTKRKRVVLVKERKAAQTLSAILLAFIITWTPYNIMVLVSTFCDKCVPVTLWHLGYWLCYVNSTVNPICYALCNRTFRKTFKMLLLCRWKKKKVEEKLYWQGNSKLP

| SMILES | Ki (human M5 receptor) [nM] | Ki (human M4 receptor) [nM] | Ki (human M1 receptor) [nM] | Ki (human M3 receptor) [nM] | Ki (human M2 receptor) [nM] |
| --- | --- | --- | --- | --- | --- |
| O=C(NCCC1CCN(Cc2ccccc2)CC1)N1CCN(c2ncc(C(F)(F)F)cn2)CC1 [5-24, N-[2-(1-benzylpiperidin-4-yl)ethyl]-4-[5-(trifluoromethyl)pyrimidin-2-yl]piperazine-1-carboxamide] | > 1000 | < 10 | 100 to 1000 | > 1000 | 10 to 100 |
| C[C@@H]1CN(c2cc(F)c(F)c(F)c2)CCN1C(=O)NCCC1CCN(Cc2ccccc2)CC1CO (stereo partly drawn) [3-17, (2R)-N-{2-[1-benzyl-3-(hydroxymethyl)piperidin-4-yl]ethyl}-2-methyl-4-(3,4,5-trifluorophenyl)piperazine-1-carboxamide] | > 1000 | < 10 | > 1000 | > 1000 | 100 to 1000 |
| Cc1c(C(=O)NC[C@@H](O)C2CCN(Cc3ccccc3)CC2)cnc2cc(-c3cccc(C(F)(F)F)c3)nn12 [17-5, N-[(2S)-2-(1-benzylpiperidin-4-yl)-2-hydroxyethyl]-7-methyl-2-[3-(trifluoromethyl)phenyl]pyrazolo[1,5-a]pyrimidine-6-carboxamide] | > 1000 | < 10 | 100 to 1000 | > 1000 | 10 to 100 |

The remaining lines, values ahead:

| Ki (human M5 receptor) [nM] | Ki (human M4 receptor) [nM] | Ki (human M1 receptor) [nM] | Ki (human M3 receptor) [nM] | Ki (human M2 receptor) [nM] | SMILES |
| --- | --- | --- | --- | --- | --- |
| 100 to 1000 | < 10 | 10 to 100 | 10 to 100 | < 10 | C[C@@H]1CN(c2ncc(Br)cn2)CCN1C(=O)NCCC1CCN(Cc2ccccc2)CC1 [5-31, (2R)-N-[2-(1-benzylpiperidin-4-yl)ethyl]-4-(5-bromopyrimidin-2-yl)-2-methylpiperazine-1-carboxamide] |
| > 1000 | < 10 | > 1000 | > 1000 | < 10 | C[C@@H]1CN(c2ncc(C#N)cn2)C[C@H](C)N1C(=O)NCCC1CCN(Cc2cccc(F)c2)CC1 [6-46, (2R,6S)-4-(5-cyanopyrimidin-2-yl)-N-(2-{1-[(3-fluorophenyl)-methyl]piperidin-4-yl}ethyl)-2,6-dimethylpiperazine-1-carboxamide] |
